Where a SMILES comes first, the peptide text is derived from it. Bridges are numbered along the chain shown (N, C = ends).
Experiments:
TrkA = TrkA (Homo sapiens, UniProt P04629); conditions: binds TrkA specifically (LeSauteur 1995); read-out: apparent Kd; cited from earlier work
4-3.6 cells = assay: Cell survival in SFM challenged with tyrosine kinase inhibitor K252a; type: cell-based, rat; conditions: highest concentration tested (500 nM)
Experimental: 5,000 cells/well in protein-free media (PFHM-II, GIBCO, Toronto, Ontario) containing 0.1% BSA (Crystalline fraction V, Sigma, St. Louis MO) were added to 96 well plates (Falcon, Mississauga, Ontario). The cultures were untreated or supplemented with serial dilutions of neurotrophins (positive control), test mAbs, or mouse IgG (negative control). The survival profile of the cells was quantitated using the MTT colorimetric assay after 48-72 hours. Percent protection was standardized relative to 1 nM NGF concentrations using the MTT optical density (OD 590 nm) and following formula: [(ODtest -ODuntreated )/(OD1nM NGF-ODuntreated )] × 100. [formula] The OD of untreated samples (SFM only) were ~10% of 1 nM NGF control.
Some survival experiments were also carried out in the presence of various concentrations of the tyrosine kinase inhibitor K252a. The concentrations of K252a used were previously reported.
Assays were done as described in Table 1 legend. 4-3.6 cell survival in SFM achieved by incubation with the indicated ligands. Optimal ligand concentrations were used as per Table 3 (1 nM NGF, 5 nM 5C3 mAb and 5 nM 5C3 + 0.5 nM MC192 mAbs) . Cells were challenged with various concentrations of K252a and % survival was calculated using 1 nM NGF as 100% standard. K252a inhibits both NGF and mAb-mediated survival in a dose dependent manner and to a similar relative degree.

Sequence of TrkA (P04629 33-796, species assumed): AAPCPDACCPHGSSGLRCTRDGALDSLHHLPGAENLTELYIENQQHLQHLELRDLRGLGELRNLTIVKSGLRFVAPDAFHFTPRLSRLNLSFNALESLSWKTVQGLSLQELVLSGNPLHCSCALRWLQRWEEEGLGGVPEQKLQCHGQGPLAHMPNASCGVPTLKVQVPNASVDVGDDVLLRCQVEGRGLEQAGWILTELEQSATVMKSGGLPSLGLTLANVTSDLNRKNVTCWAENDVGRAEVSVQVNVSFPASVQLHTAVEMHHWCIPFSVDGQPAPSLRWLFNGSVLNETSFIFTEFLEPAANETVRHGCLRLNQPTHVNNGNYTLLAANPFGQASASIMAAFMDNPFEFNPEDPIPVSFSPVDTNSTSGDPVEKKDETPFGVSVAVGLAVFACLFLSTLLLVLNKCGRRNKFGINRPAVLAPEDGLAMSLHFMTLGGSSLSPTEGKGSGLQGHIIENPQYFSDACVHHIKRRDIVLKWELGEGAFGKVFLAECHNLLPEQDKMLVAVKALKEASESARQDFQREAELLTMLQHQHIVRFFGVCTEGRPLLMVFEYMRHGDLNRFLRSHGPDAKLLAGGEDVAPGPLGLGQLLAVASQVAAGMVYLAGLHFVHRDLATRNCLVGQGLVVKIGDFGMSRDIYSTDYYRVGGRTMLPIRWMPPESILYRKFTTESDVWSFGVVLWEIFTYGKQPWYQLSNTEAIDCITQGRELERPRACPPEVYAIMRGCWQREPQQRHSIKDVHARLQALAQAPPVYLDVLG

Row | SMILES | Kd (TrkA) [nM] | toxicity to 4-3.6 cells (4-3.6 cells)
1 | CC(=O)N[C@@H](Cc1ccc(O)cc1)C(=O)N[C@H]1CSSC[C@@H](C(=O)N[C@@H](Cc2ccc(O)cc2)C(=O)O)NC(=O)[C@H](CCC(N)=O)NC(=O)[C@H](CCCCN)NC(=O)[C@H](CCC(=O)O)NC(=O)[C@H](CC(=O)O)NC(=O)[C@H]([C@@H](C)O)NC1=O [C(92-96)] (Ac-YCTDEKQCY-OH; disulfide 2-8) | ~100 | 
2 | COC(=O)[C@@]1(O)C[C@H]2O[C@]1(C)n1c3ccccc3c3c4c(c5c6ccccc6n2c5c31)C(=O)NC4 [K252a] |  | not toxic
